Tests used:
pNf-H = assay: Plasma pNf-H biomarker in nusinersen clinical trials; assay type: in vivo, human; conditions: SMA types 1, 2 and presymptomatic infants
Source text: In nusinersen clinical trials with SMA types 1, 2 and presymptomatic infants, plasma pNf-H differentiated SMA individuals from healthy controls. […] Thus assessing the levels of neurofilament (e.g., pNf-H and/or NfL) can be a helpful biomarker prior or during treatment.

[1] = test system: subjects with infantile-onset SMA; assay: PK/PD (Emax) model of CSF Ctrough versus change from baseline in CHOP-INTEND; parameters: species or system human; conditions: model projection
Source text: Dashed (long), solid, and dashed (shorter) line represents the predicted PK/PD relationship when Emax was fixed at 10, 25, and 40, respectively. The observed data are divided based on 10 quantiles of CSF Ctrough values. The empty and filled circles represent the mean observed and predicted change in CHOP-INTEND from baseline, respectively.

[2] = human, in vivo
Method: In studies to explore the relationship between nusinersen exposure and clinical response, data from subjects with infantile-onset SMA (subjects <6 months of age at diagnosis or symptom onset) were used. Analyses were conducted to characterize a quantitative PK/PD relationship for nusinersen and to determine if higher nusinersen exposure is associated with additional efficacy in the infantile-onset SMA population.

[3] = test system: subjects with infantile-onset SMA; assay: Exposure-response and motor function / motor milestones in nusinersen clinical studies; assay type: in vivo, human
Method: During the nusinersen clinical development program, an exploratory exposure-response analysis was conducted using data for 14 subjects with infantile-onset SMA who received nusinersen. […] All subjects received maintenance doses of 12 mg every 4 months after Day 85. Separation of the response curves for the 2 cohorts began around Day 29 and became wider over the course of the study.

nonhuman primate = assay: Nonhuman primate safety studies; assay type: in vivo

Substance: nusinersen
- plasma pNf-H after treatment initiation (pNf-H): rapid decline followed by stabilization
- CSF Ctrough that will achieve 90% of the maximum observed response [1]: 23 ng/mL
- maximum mean [SD] CSF Ctrough [2]: 31.3 [24.8] ng/mL
- attainment of motor milestones ([3]; 12 mg loading doses versus 6 mg loading doses on Days 1, 15, 85, infantile-onset SMA): earlier and greater improvement
- correlation between nusinersen CSF exposure and motor function ([3]; 14 subjects with infantile-onset SMA, exploratory exposure-response analysis): statistically significant positive correlation
- correlation between CSF Ctrough and total motor milestones scores ([3]; infantile- or later-onset SMA, 12 mg as 4 loading doses then every 4 months, preliminary analysis, data not shown): positive correlation
- improvement in motor function ([3]; more frequent dosing: 12 mg loading Days 1, 15, 29, 64, 12 mg maintenance every 4 months, infantile-onset SMA): Greater improvement
- safety of 28 and 50 mg doses (nonhuman primate): support the use of these doses
